Common to all, as to assay type: biochemical
The target of one test is T1, Aurora A (Homo sapiens, UniProt O14965).
T1 construct: purchased Invitrogen PV3612
T1 sequence (O14965 1-403): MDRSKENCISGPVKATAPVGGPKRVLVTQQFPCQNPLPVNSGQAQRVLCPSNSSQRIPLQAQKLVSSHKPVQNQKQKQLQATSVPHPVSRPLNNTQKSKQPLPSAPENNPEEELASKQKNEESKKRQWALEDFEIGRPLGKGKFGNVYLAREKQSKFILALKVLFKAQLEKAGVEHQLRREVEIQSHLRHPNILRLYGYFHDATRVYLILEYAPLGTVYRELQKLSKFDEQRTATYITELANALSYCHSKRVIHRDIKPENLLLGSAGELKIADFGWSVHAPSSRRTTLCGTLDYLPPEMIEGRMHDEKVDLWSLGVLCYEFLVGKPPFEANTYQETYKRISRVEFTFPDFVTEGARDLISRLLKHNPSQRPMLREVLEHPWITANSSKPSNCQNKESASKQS
The experiment in a line: Aurora A Inhibition Assay (Z-Lyte). The conditions noted are these: for inhibition at 10 µM: 10 μM compound, read-out: Aurora A relative inhibition percentage at a dose of 10 μM; for IC50: 20 μM ATP, 12 nM Aurora A, read-out: Aurora A IC50 Ranges. As for the experimental part: Aurora A inhibition was determined using the Z-Lyte assay kit from Invitrogen. The assay was performed using the recommended manufacturer's instructions with 20 μM ATP and 12 nM Aurora A (Invitrogen cat #PV3612). The % inhibition values were determined according to the manufacturer's directions and IC50 values were obtained using a non-linear 4 point logistic curve fit (XLfit4, IDBS)

Another test addresses T2, PLK1 (Homo sapiens, UniProt P53350).
T2 construct: purchased Invitrogen PV3501
Nature of the test: PLK1 Inhibition Assay (Z-Lyte). As to conditions: for IC50: 25 μM ATP, 8 nM PLK1, read-out: PLK1 IC50 Ranges; for inhibition at 10 µM: 10 μM compound, read-out: PLK1 relative inhibition percentage at a dose of 10 μM. The protocol:
PLK1 inhibition was determined using the Z-Lyte assay kit from Invitrogen (cat #PV3802). […] The % inhibition values were determined according to the manufacturer's directions and IC50 values were obtained using a non-linear 4 point logistic curve fit (XLfit4, IDBS)

Another test concerns the target T3, PLK2 (Homo sapiens, UniProt Q9NYY3).
T3 construct: purchased Invitrogen PV4204
Nature of the test: PLK2 Inhibition Assay (Z-Lyte). As to conditions: for inhibition at 10 µM: 10 μM compound, read-out: PLK2 relative inhibition percentage at a dose of 10 μM. As for the experimental part: PLK2 inhibition was determined using the Z-Lyte assay kit from Invitrogen (cat #PV3802). The assay was performed using the recommended manufacturer's instructions with 60 μM ATP and 133 nM PLK2 (Invitrogen cat #PV4204). The % inhibition values were determined according to the manufacturer's directions and IC50 values were obtained using a non-linear 4 point logistic curve fit (XLfit4, IDBS)

The next test concerns the target T4, Aurora B (Homo sapiens, UniProt Q96GD4).
T4 construct: purchased Invitrogen PV3970
Nature of the test: Aurora B Inhibition Assay (Z-Lyte). As to conditions: for IC50: 128 μM ATP, 28 nM Aurora B, read-out: Aurora B IC50 Ranges. As for the experimental part:
Aurora B inhibition was determined using the Z-Lyte assay kit from Invitrogen. The assay was performed using the recommended manufacturer's instructions with 128 μM ATP and 28 nM Aurora B (Invitrogen cat #PV3970). The % inhibition values were determined according to the manufacturer's directions and IC50 values were obtained using a non-linear 4 point logistic curve fit (XLfit4, IDBS)

In the next test the target is T5, human PLK4 (Homo sapiens, UniProt O00444).
T5 construct: amino terminal GST fusion of residues 1-391 of human PLK4; made in house; host or cells: E. coli
T5 sequence (O00444 1-391): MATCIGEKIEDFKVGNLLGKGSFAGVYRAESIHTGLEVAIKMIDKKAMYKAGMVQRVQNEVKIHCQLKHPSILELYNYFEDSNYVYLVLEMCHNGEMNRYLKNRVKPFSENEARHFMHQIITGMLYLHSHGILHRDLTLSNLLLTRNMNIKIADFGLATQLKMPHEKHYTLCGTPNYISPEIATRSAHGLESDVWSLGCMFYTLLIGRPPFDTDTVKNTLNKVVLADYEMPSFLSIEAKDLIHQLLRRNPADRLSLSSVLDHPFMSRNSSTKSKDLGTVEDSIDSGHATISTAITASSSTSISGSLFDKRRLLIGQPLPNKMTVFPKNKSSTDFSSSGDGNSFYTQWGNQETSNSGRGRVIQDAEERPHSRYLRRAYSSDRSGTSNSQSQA
Nature of the test: PLK4 Inhibition Assay (indirect ELISA). The conditions noted are these: 15 μM ATP, 4 nM GST-PLK4; read-out: PLK4 IC50 Ranges. The gist of the method: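 IC50 values, from 4-point logistic fitting, reflect remaining activity measured by indirect ELISA. Enzyme was GST-PLK4 treated with lambda phosphatase and given a 15-minute pre-incubation with compound before ATP start.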

Bounds are passed on as bounds.

T2 sequence (P53350 whole entry): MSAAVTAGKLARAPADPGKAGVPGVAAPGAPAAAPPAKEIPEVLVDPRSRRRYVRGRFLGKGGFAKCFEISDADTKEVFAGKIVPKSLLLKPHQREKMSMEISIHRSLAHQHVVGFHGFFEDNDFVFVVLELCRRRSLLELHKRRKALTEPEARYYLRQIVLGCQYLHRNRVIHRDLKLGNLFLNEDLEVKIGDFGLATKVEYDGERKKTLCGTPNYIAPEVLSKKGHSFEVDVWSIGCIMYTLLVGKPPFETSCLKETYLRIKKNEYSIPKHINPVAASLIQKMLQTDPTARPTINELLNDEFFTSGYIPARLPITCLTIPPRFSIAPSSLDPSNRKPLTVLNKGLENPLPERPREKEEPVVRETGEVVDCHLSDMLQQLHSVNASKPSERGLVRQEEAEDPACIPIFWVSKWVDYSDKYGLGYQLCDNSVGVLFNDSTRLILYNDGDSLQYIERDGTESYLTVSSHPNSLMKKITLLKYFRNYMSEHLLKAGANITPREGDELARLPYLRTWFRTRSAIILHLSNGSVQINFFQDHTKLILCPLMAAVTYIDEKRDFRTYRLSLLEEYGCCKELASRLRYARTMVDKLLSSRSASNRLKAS
T4 sequence (Q96GD4 whole entry): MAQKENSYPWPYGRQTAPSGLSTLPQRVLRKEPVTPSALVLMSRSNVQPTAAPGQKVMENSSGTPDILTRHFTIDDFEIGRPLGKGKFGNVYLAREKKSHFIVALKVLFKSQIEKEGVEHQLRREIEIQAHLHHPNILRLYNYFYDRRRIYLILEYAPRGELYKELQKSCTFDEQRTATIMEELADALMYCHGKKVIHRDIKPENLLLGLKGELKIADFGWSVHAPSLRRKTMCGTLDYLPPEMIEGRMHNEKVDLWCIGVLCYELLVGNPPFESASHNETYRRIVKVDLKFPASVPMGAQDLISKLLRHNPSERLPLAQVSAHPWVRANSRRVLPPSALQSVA
T3 sequence (Q9NYY3 whole entry): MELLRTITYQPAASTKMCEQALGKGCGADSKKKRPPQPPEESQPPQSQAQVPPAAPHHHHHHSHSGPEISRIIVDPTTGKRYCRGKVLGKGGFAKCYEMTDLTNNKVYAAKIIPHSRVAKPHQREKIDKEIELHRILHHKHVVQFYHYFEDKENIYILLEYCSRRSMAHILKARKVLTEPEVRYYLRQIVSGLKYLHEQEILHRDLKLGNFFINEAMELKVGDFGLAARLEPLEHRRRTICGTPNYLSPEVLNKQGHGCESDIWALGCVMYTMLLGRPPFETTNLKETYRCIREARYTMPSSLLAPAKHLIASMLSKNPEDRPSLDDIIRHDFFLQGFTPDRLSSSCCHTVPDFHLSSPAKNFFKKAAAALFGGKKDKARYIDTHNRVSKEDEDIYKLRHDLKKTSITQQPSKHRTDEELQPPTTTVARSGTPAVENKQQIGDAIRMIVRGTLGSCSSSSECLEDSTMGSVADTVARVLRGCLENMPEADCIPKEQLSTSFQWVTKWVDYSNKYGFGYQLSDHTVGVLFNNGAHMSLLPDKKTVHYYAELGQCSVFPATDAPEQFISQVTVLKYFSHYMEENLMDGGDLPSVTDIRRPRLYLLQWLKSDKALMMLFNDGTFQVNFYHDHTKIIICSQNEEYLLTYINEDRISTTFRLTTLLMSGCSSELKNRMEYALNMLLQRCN

Take `O=C1Nc2ccccc2/C1=C\c1cc(-c2ccncc2)c2cn[nH]c2c1` [Example A54a, (E)-3-((4-(pyridin-4-yl)-1H-indazol-6-yl)methylene)indolin-2-one]: the inhibition at 10 µM at Aurora A and on PLK2 was more than 50% in each case. Further, the IC50 at PLK1 was more than 50 µM; on Aurora B, less than 5 µM; at human PLK4, less than 5 µM.
Consider `O=C1Nc2ccc(Br)cc2/C1=C\c1ccc2cn[nH]c2c1` [Example A35, (E)-3-((1H-indazol-6-yl)methylene)-5-bromoindolin-2-one], for which the inhibition at 10 µM at Aurora A and on PLK2 was less than 50% each time. Moreover, the values for the IC50 on PLK1, at Aurora B and at human PLK4 were more than 50 µM, less than 5 µM and less than 5 µM, respectively.
For the compound `CC(=O)Nc1ccc2c(c1)NC(=O)/C2=C/c1ccc2cn[nH]c2c1` [Example A13, (E)-N-(3-((1H-indazol-6-yl)methylene)-2-oxoindolin-6-yl)acetamide], the inhibition at 10 µM at Aurora A was more than 50%; at PLK2, less than 50%; on Aurora B (10 μM compound, read-out: Aurora B relative inhibition percentage at a dose of 10 μM) it was less than 50%. Besides, the values for the IC50 at PLK1 and on human PLK4 were 5 to 50 µM and less than 5 µM, respectively.
Consider `O=C1Nc2ncccc2C1=Cc1ccc2c(/C=C/c3cccnc3)n[nH]c2c1` (mixture of isomers) [Example A114, (E and Z)-3-((3-((E)-2-(pyridin-3-yl)vinyl)-1H-indazol-6-yl)methylene)-1H-pyrrolo[2,3-b]pyridin-2(3H)-one], for which the half-inhibitory concentration (IC50) at Aurora A, at Aurora B and on human PLK4 was less than 5 µM in each case. The inhibition at 10 µM on PLK1 and on PLK2 was less than 50% each time.
With `O=C1Nc2cc(Cl)ccc2/C1=C\c1ccc2cn[nH]c2c1` [Example A36, (E)-3-((1H-indazol-6-yl)methylene)-6-chloroindolin-2-one], the IC50 is more than 50 µM at Aurora A, 5 to 50 µM on PLK1, less than 5 µM on Aurora B and less than 5 µM at human PLK4. Besides, at PLK2, the inhibition at 10 µM was less than 50%.
Consider `O=C1Nc2ccccc2C1=Cc1ccc2c(CCc3ccncc3)n[nH]c2c1` (mixture of isomers) [Example A64, (E and Z)-3-((3-(2-(pyridin-4-yl)ethyl)-1H-indazol-6-yl)methylene)-indolin-2-one], for which the inhibition at 10 µM was more than 50% at Aurora A, less than 50% at PLK1 and less than 50% at PLK2. The IC50 at Aurora B and at human PLK4 was less than 5 µM in each case.
As to `COC(=O)/C=C/c1n[nH]c2cc(/C=C3/C(=O)Nc4ccccc43)ccc12` [Example A61, (E)-methyl 3-(6-((E)-(2-oxoindolin-3-ylidene)methyl)-1H-indazol-3-yl)acrylate], the concentration for half-maximal inhibition (IC50) at Aurora A, on Aurora B and at human PLK4 was less than 5 µM each time. Moreover, the inhibition at 10 µM on PLK1 and on PLK2 was less than 50% in each case.
On to `COc1ccc2c(c1)C(=Cc1ccc3c(/C=C/c4ccccn4)n[nH]c3c1)C(=O)N2` (mixture of isomers) [Example A87, (E and Z)-5-methoxy-3-((3-((E)-2-(pyridin-2-yl)vinyl)-1H-indazol-6-yl)methylene)indolin-2-one], for which the inhibition at 10 µM is more than 50% on Aurora A, less than 50% on PLK1 and less than 50% on PLK2. Moreover, the IC50 at Aurora B and on human PLK4 was less than 5 µM each time.
On to `O=C1Nc2ccccc2/C1=C\c1ccc2c(/C=C/c3cccnc3)n[nH]c2c1` [Example A113, (E)-3-((3-((E)-2-(pyridin-3-yl)vinyl)-1H-indazol-6-yl)methylene)-indolin-2-one], for which the IC50 at Aurora A, on Aurora B and on human PLK4 was less than 5 µM in each case. For the same compound, the inhibition at 10 µM at PLK1 and on PLK2 was less than 50% each time.
Turning to `O=C1Nc2ccc(Cl)cc2/C1=C\c1ccc2cn[nH]c2c1` [Example A80, (E)-3-((1H-indazol-6-yl)methylene)-5-chloroindolin-2-one], the IC50 on Aurora A, at Aurora B and on human PLK4 was less than 5 µM in each case. The inhibition at 10 µM at PLK1 and on PLK2 was less than 50% throughout.
Consider `O=C1Nc2ccc(F)cc2/C1=C\c1ccc2cn[nH]c2c1` [Example A16, (E)-3-((1H-indazol-6-yl)methylene)-5-fluoroindolin-2-one], for which the half-maximal inhibitory concentration (IC50) was less than 5 µM at Aurora A; 5 to 50 µM on PLK1; less than 5 µM on PLK2 (60 μM ATP, 133 nM PLK2, read-out: PLK2 IC50 Ranges); less than 5 µM on Aurora B; less than 5 µM at human PLK4.
In the case of `Cc1ccc2c(c1)C(=Cc1ccc3cn[nH]c3c1)C(=O)N2` (mixture of isomers) [Example A81, (E and Z)-3-((1H-indazol-6-yl)methylene)-5-methylindolin-2-one], the 50% inhibitory concentration (IC50) on Aurora A, on Aurora B and at human PLK4 was less than 5 µM throughout. The inhibition at 10 µM at PLK1 and at PLK2 was less than 50% throughout.
Take `CCOC(=O)/C=C/c1n[nH]c2cc(C=C3C(=O)Nc4ncccc43)ccc12` (mixture of isomers) [Example A110, (E and Z)-ethyl 3-(6-((E)-(2-oxo-1H-pyrrolo[2,3-b]pyridin-3(2H-ylidene)methyl)-1H-indazol-3-yl)acrylate]: the half-inhibitory concentration (IC50) at Aurora A, at Aurora B and at human PLK4 was less than 5 µM in each case. Further, the inhibition at 10 µM at PLK1 and on PLK2 was less than 50% throughout.
Turning to `O=C1Nc2c(Cl)cccc2/C1=C\c1ccc2cn[nH]c2c1` [Example A43, (E)-3-((1H-indazol-6-yl)methylene)-7-chloroindolin-2-one], the IC50 on Aurora A is 5 to 50 µM; on PLK1, more than 50 µM; at Aurora B, less than 5 µM; on human PLK4 it was less than 5 µM. The inhibition at 10 µM on PLK2 is more than 50%.
As to `COc1ccc2c(c1)C(=Cc1ccc3c(/C=C/C(=O)N4CCN(C)CC4)n[nH]c3c1)C(=O)N2` (mixture of isomers) [Example A118, (E and Z)-5-methoxy-3-((3-((E)-3-(4-methylpiperazin-1-yl)-3-oxoprop-1-enyl)-1H-indazol-6-yl)methylene)indolin-2-one], the IC50 at Aurora A, on Aurora B and on human PLK4 was less than 5 µM in each case. Further, the inhibition at 10 µM on PLK1 and at PLK2 was less than 50% each time.
On to `COCn1nc(/C=C/c2ccncc2)c2ccc(/C=C3/C(=O)Nc4ccc(Br)cc43)cc21` [Example A63, (E)-5-bromo-3-((1-(methoxymethyl)-3-((E)-2-(pyridin-4-yl)vinyl)-1H-indazol-6-yl)methylene)indolin-2-one], for which the inhibition at 10 µM on PLK1 and at PLK2 was less than 50% throughout. The half-inhibitory concentration (IC50) on human PLK4 was less than 5 µM.
`O=C1Nc2ccccc2/C1=C\c1cc(Br)c2cn[nH]c2c1` [Example A53a, (E)-3-((4-bromo-1H-indazol-6-yl)methylene)indolin-2-one]: the inhibition at 10 µM was less than 50% on PLK1 and more than 50% on PLK2. Further, the IC50 on Aurora B and on human PLK4 was less than 5 µM in each case.

Source of the values: patent publication US8765748B2, “Indazolyl, benzimidazolyl, benzotriazolyl substituted indolinone derivatives as kinase inhibitors useful in the treatment of cancer” (University Health Network, priority 2007, dated 2014).
